Assay results from patent US20100004283A1, “4-[(3-FLUOROPHENOXY)PHENYLMETHYL]PIPERIDINE METHANESULFONATE: USES, PROCESS OF SYNTHESIS AND PHARMACEUTICAL COMPOSITIONS” (priority 2006, published 2010).

What was measured:
5-HTP-induced syndrome = settings: mice, orally administered, acute; cited from earlier work
[1] = system: immobility in the tail suspension test; settings: mice, orally administered, acute; cited from earlier work
[2] = Studies of stability under forced conditions; type: physicochemical
Protocol: Additionally, the compound of formula I has shown excellent stability properties. The compound of formula I has remained stable for at least 6 months in studies of stability under forced conditions at 50 and 60° C., as well as at 40° C. and 75% humidity. This represents more than 2 years of stability under normal conditions.

Row | Structure (SMILES) | minimal effective dose (MED), potentiation of the 5-HTP-induced syndrome (5-HTP-induced syndrome) [mg/kg] | MED, reduction of the immobility in the tail suspension test [1] [mg/kg] | time remained stable ([2]; 40° C. and 75% humidity) | time remained stable ([2]; forced conditions at 50° C.) | time remained stable ([2]; forced conditions at 60° C.) | stability under normal conditions ([2]; represented by the forced-condition results)
1 | Fc1cccc(O[C@H](c2ccccc2)C2CCNCC2)c1 [(S)-4-[(3-fluorophenoxy)phenylmethyl]piperidine] | 10 | 10 | – | – | – | –
2 | CS(=O)(=O)O.Fc1cccc(OC(c2ccccc2)C2CCNCC2)c1 (stereo not drawn) [compound of formula I, 4-[(3-fluorophenoxy)phenylmethyl]piperidine methanesulfonic acid salt] | – | – | at least 6 months | at least 6 months | at least 6 months | more than 2 years
